Test results: US12306194B2, “Reagent for fluorescence imaging of lipid droplets in cell and tissue” (NATIONAL UNIVERSITY CORPORATION GUNMA UNIVERSITY, priority 2019, dated 2025)

Legend:
[1] = Measurement of maximum absorption wavelength, maximum fluorescence wavelength and fluorescence quantum yield in solvents; type: physicochemical
Protocol: Using a luminescent quantum yield measurement apparatus ([…]-01, manufactured by Hamamatsu Photonics K.K.), the maximum absorption wavelength (λabs/nm), the maximum fluorescence wavelength (λflu/nm), and the fluorescence quantum yield (Φf) of the compound in each solvent were measured. The absorption spectrum was measured using an ultraviolet and visible spectrophotometer (Ubest-550, manufactured by JASCO Corporation), and the fluorescence emission spectrum was measured using a fluorescence spectrophotometer (F-7000, manufactured by Hitachi, Ltd.)

[2] = Measurement of fluorescence lifetime in solvents; type: physicochemical
Protocol: The fluorescence lifetime (τf) of each compound in each solvent was measured using a compact fluorescence lifetime measurement apparatus (Quntaurus-Tau, manufactured by Hamamatsu Photonics K.K.).

[3] = system: lipid droplets in HeLa cells; assay: Fluorescence imaging of lipid droplets in oleic acid-treated HeLa cells; type: cell-based
Excerpt: Since LipiDye requires use of an excitation wavelength of about 405 nm, there is a concern about phototoxicity to cells in cases of long observation.

[4] = system: 3T3-L1 cells (adipocytes); assay: Intracellular photostability under excitation light in 3T3-L1 cells; type: cell-based; settings: summary grade, Table 3
Protocol: (§1) Using a fluorescence microscope (IX71, manufactured by Olympus Corporation), fluorescence imaging images of cells were acquired over time, and the photostability (It/I0) and the retention property were measured.
The photostability and the retention property are important factors in long-term measurement for, for example, tracing the processes of formation, fusion, and degradation of lipid droplets. Each fluorescent reagent was added to 3T3-L1 cells (adipocytes) to a final concentration of 100 nM, and the cells were cultured for 30 minutes. After washing the cells, the cells were irradiated with an excitation light required for imaging (450 to 500 nm; for LipiDye, an excitation wavelength of 400 to 440 nm), to evaluate the photostability. By regarding the time immediately after the irradiation as Second 0, imaging images were acquired at 20-second intervals for analysis of the image intensity.

[5] = system: 3T3-L1 cells (adipocytes); assay: Intracellular retention property in 3T3-L1 cells; type: cell-based
Protocol: as §1
For evaluation of the intracellular retention property of each reagent, each fluorescent reagent was added to 3T3-L1 cells (adipocytes) to a final concentration of 100 nM (for Lipi-Green, 500 nM), and imaging images were acquired after 30 minutes of culture and 24 hours after washing away of the reagent.

[6] = 100 nM (Lipi-Green 500 nM), 3T3-L1 cells, 24 hours after washing away of the reagent

Row | Φf (fluorescence quantum yield) ([1]; in Bu2O (dibutyl ether)) | λmax abs (maximum absorption wavelength) ([1]; in Bu2O (dibutyl ether)) | λmax flu (maximum fluorescence wavelength) ([1]; in Bu2O (dibutyl ether)) | Φf (fluorescence quantum yield) ([1]; in MeCN) | λmax abs (maximum absorption wavelength) ([1]; in MeCN) | λmax flu (maximum fluorescence wavelength) ([1]; in MeCN) | τf (fluorescence lifetime) ([2]; in Bu2O (dibutyl ether)) | τf (fluorescence lifetime) ([2]; in MeCN) | Photostability [4] | Compound | imaging of lipid droplets / lipid droplet selectivity in HeLa cells ([3]; 100 nM reagent, 30 minutes, 400 μM oleic acid 48 hours) | fluorescence intensity of HeLa cells ([3]; 100 nM reagent, 30 minutes, compared with BODIPY493/503 or Lipi Green) | Brightness in cells ([3]; summary grade, Table 3) | intracellular retention property [5, 6] | intracellular retention property ([5]; summary grade, Table 3) | Selectivity for lipid droplets ([3]; summary grade, Table 3)
1 | 0.86 | 460 nm | 530 nm | 0.80 | 478 nm | 613 nm | 2.83 ns | 3.70 ns |  | CCN(CC)c1ccc2cc3cc(-c4nc5ccccc5o4)c(=O)oc3cc2c1 [PC6O, 3-(Benzo[d]oxazol-2-yl)-8-(diethylamino)-2H-benzo[g]chromen-2-one] |  |  |  |  |  | 
2 |  |  |  |  |  |  |  |  | Δ | CCN(CC)c1ccc2nc3c4ccccc4c(=O)cc-3oc2c1 [Nile Red] | low lipid droplet selectivity | higher fluorescence intensities | ◯ | remarkable decreases in the fluorescence intensity | Δ | 

Continued, compound first:

Row | Compound | Φf (fluorescence quantum yield) ([1]; in Bu2O (dibutyl ether)) | λmax abs (maximum absorption wavelength) ([1]; in Bu2O (dibutyl ether)) | λmax flu (maximum fluorescence wavelength) ([1]; in Bu2O (dibutyl ether)) | Φf (fluorescence quantum yield) ([1]; in MeCN) | λmax abs (maximum absorption wavelength) ([1]; in MeCN) | λmax flu (maximum fluorescence wavelength) ([1]; in MeCN) | τf (fluorescence lifetime) ([2]; in Bu2O (dibutyl ether)) | τf (fluorescence lifetime) ([2]; in MeCN) | Photostability [4] | imaging of lipid droplets / lipid droplet selectivity in HeLa cells ([3]; 100 nM reagent, 30 minutes, 400 μM oleic acid 48 hours) | fluorescence intensity of HeLa cells ([3]; 100 nM reagent, 30 minutes, compared with BODIPY493/503 or Lipi Green) | Brightness in cells ([3]; summary grade, Table 3) | intracellular retention property [5, 6] | intracellular retention property ([5]; summary grade, Table 3) | Selectivity for lipid droplets ([3]; summary grade, Table 3)
3 | CCN(CC)c1ccc2cc3cc(-c4nc5ccccc5n4C)c(=O)oc3cc2c1 [PC6NMe, 8-(Diethylamino)-3-(1-methyl-1H-benzo[d]imidazol-2-yl)-2H-benzo[g]chromen-2-one] | 0.67 | 438 nm | 512 nm | 0.77 | 449 nm | 590 nm | 3.53 ns | 4.08 ns |  |  |  |  |  |  | 
4 | CC1=CC(C)=[N+]2C1=C(C)c1c(C)cc(C)n1[B-]2(F)F [BODIPY493/503] |  |  |  |  |  |  |  |  |  |  |  | Δ | remarkable decreases in the fluorescence intensity |  | ◯
5 | CCN(CC)c1ccc2cc3cc(-c4nc5ccccc5[nH]4)c(=O)oc3cc2c1 [PC6NH, 3-(1H-Benzo[d]imidazol-2-yl)-8-(diethylamino)-2H-benzo[g]chromen-2-one] | 0.89 | 458 nm | 523 nm | 0.82 | 477 nm | 604 nm | 2.79 ns | 3.78 ns |  |  |  |  |  |  | 
